Reference: patent US10285985B2, “Pharmaceutical composition for treatment or prevention of neurodegenerative diseases” (NATIONAL UNIVERSITY CORPORATION OKAYAMA UNIVERSITY, priority 2015, dated 2019)
Values joined by “and” are separate entries in the source; they are usually repeats but may differ in a detail not shown here. Equal entries are not always repeated. Where two headings read alike, the source gives them in different places.

Assays:
[1] = test system: Parkinson's disease model rats; experiment: Apomorphine-induced rotation in Parkinson's disease model rats (6-OHDA); assay type: in vivo, SD rat; conditions: individual rats, Day 12, 0.015% w/w in feed, apomorphine 1 mg/kg i.p., 3 minutes
Protocol: A 8-week old male SD rat under isoflurane anesthesia was skin-incised on the head and then a connective tissue was dissected and removed. Then, the tissue was fixed on a brain stereotactic fixture, bregma and lambda coordinates were measured, a microinjection cannula was inserted at four points of administration coordinates AP (+1.3, +0.4, −0.4, −1.3 mm) and DV (−5.0 mm) at the depth of 5.0 mm from the brain surface, and 2 μL of a 3.5 mg/mL solution of 6-OHDA (6-hydroxydopamine) in a saline with 0.02% ascorbic acid as a solvent was infused at a rate of 1 μL/min. Similar surgical procedure was conducted for a sham group and saline with ascorbic acid alone was infused. Five minutes after infusion, the glass pipette was kept to be inserted for diffusing the solution. […] A rat with Parkinson's disease rotates to the left after apomorphine administration. An individual which rotated seven or more times in one minute after the initiation of the rotation was used as a Parkinson's disease model.
The rats were allowed to freely access to MF feed containing a 0.015% w/w RXR partial agonist. After 6 and 12 days, to the animal was intraperitoneally administered a 1 mg/mL solution of apomorphine in saline at 1 mg/kg, and the rotatory movement number for 3 minutes immediately after the administration was recorded.

[2] = Brain-migration ability: plasma and cerebral concentration by HPLC; assay type: in vivo, male ICR mice; conditions: for concentration at 1 h: mouse, one hour after 30 mg/kg single-dose administration, male ICR mice, ave ± SEM
Protocol: A compound was administered at a dose of 30 mg/kg mouse body weight. A compound to be administered was prepared by dissolving it in a 1% final concentration of ethanol and suspending the solution in a 0.5% carboxymethyl cellulose (CMC) solution. Animals subjected to administration were male ICR mice (6 week old), and they were fasted from 17 o'clock the day before.
The collected blood was put in a heparinized tube, mixed with inversion and then centrifuged (600 g) for 5 minutes to obtain plasma. To 100 μL of the plasma were added 100 μL of an ammonium acetate buffer solution and 1 mL of ethyl acetate, and the mixture was stirred by a vortex mixer for 30 seconds and then left at room temperature for 10 minutes. Then, the mixture was centrifuged 30 seconds and 800 μL of the supernatant was concentrated by a centrifugal evaporator. To the concentrate was added 100 μL of an HPLC eluent to prepare an HPLC sample.
Under ether anesthesia, the brain was removed from a mouse after administrating a drug, and about 100 mg of the brain was weighed into a 2 mL Eppendorf tube. After adding 1000 μL of methanol per 100 mg of the brain, the mixture was homogenized. After the homogenization, the homogenate was centrifuged at 10,000 g at 10 to 15° C. for 10 minutes. Then, in a separate 1.5 mL Eppendorf tube, 700 μL of the supernatant […] was dispensed and concentrated to dryness by a centrifugal evaporator. To the concentrate was added 70 μL of the HPLC eluent, to give a solution (10× concentrate).
A 30 μM solution of the drug in methanol was prepared and diluted with the HPLC eluent (5 mM AcONH4, pH5, MeOH) to 10, 3, 1 and 0.3 μM. Using these, a calibration curve was formed. The plasma and the […] samples were subjected to measurement and a measured value was converted to a concentration.

[3] = mice, oral 30 mg/kg/day for one week; cited from earlier work
[4] = test system: multiple sclerosis model mice (EAE mice); experiment: Multiple sclerosis model mice (EAE mice), clinical score; assay type: in vivo, C57BL6/J mice; conditions: 0.015 w/w % in feed, vs vehicle group, FIG. 8
[5] = test system: senescence-accelerated mouse (SAMP8); experiment: Blood data and organ weight in senescence-accelerated mouse (SAMP8) after 9 weeks of drug feed; assay type: in vivo; conditions: drug feed for 9 weeks, FIG. 7B, C
Protocol: After MRI imaging, the mice used in the above test were subjected to blood collection and then dissected, and blood data and the weight of each organ were recorded. Autopsy was conducted for the mice fed with MF feed containing a drug for 9 weeks. The animals were not fasted the day before the autopsy.

[6] = test system: senescence-accelerated mouse (SAMP8); experiment: Y-maze test in senescence-accelerated mouse (SAMP8); assay type: in vivo; conditions: SAMP8 mice, 0.015% in feed; FIG. 5A
Protocol: In this test, the mice used in the step-through test were used as they were.
After the step-through test, a Y-maze for a mouse (arm length: 40 cm) was used and mice were allowed to freely move for 8 minutes. In a Y-shaped system, a near-side arm, a left-back arm and a right-back arm are A, B, and C, respectively, and the number of entry into each arm was recorded (here, “entry” is defined that both hind paws of a mouse enter an arm, and entry of forepaws only is defined as “not enter”). This is called as a Y-maze.

In the case of `CN1CCc2cccc3c2[C@H]1Cc1ccc(O)c(O)c1-3` [Apomorphine, apomorphine], the “rotatory movement number, Left” value [1] is reported as 11 and 19 and 9 and 4 and 16 and the “rotatory movement number, Right” value [1] is reported as 0.
In the case of `Cc1cc2c(cc1-n1nnc3cc(C(=O)O)ccc31)C(C)(C)CCC2(C)C` [CBt-PMN], the “migration to the brain compared with bexarotene” value ([2]; 30 mg/kg, mice, one hour) is reported as “migrates more smoothly to the brain than bexarotene”, the concentration at 1 h ([2]; brain, read-out: Brain concentration) is reported as 11.4 ± 3.7 µM and the concentration at 1 h ([2]; plasma, read-out: Plasma concentration) is reported as 15.8 ± 6 µM.
For `CCN(c1ccc(OCC(C)C)c(C(C)C)c1)c1ccc(C(=O)O)cn1` [NEt-4IB], the “liver weight vs vehicle group” value [3] is given as “not a difference”, the “tendency to weight gain (body weight change over a week)” value [3] is given as “not observed” and the “triglyceride level vs vehicle group” value [3] is given as “not a difference”. For the same molecule, the “rotatory movement number, Left” value ([1]; listed as NEt-41B) was 53 and 18 and 6 and 0 and 32 and the “rotatory movement number, Right” value ([1]; listed as NEt-41B) was 0 (4×) and 75.
With `C=C(c1ccc(C(=O)O)cc1)c1cc2c(cc1C)C(C)(C)CCC2(C)C` [bexarotene] the “clinical score / amelioration of pathological model” value [4] was “did not ameliorate”, the blood triglyceride ([5]; SAMP8 mice) was “increase” and the “enlargement of the liver” value ([5]; SAMP8 mice) was “observed”. For the same molecule, the blood triglyceride ([5]; SAMR1 mice) was “increase”, the “enlargement of the liver” value ([5]; SAMR1 mice) was “observed” and the “effect on SAMP8 hyperactivity (number of entry in the Y-maze arm)” value [6] was “no effects”.
